Among the data in patent US12539292B2, “BRM targeting compounds and associated methods of use” (Arvinas Operations, Inc., priority 2018, dated 2026) are DC50 and Dmax values, retold here.

In general, DC50 refers to the midpoint of the concentration-degradation curve. The term Dmax denotes the largest share of the target that was removed.

The target in this experiment is T1, BRM (Homo sapiens, UniProt P51531).
T1 construct: In-Cell Western Screen of BRM Degradation in SW1573 Cells; endogenous in cells; host or cells: SW1573
As to the kind of experiment: In-cell Western screen of BRM degradation in SW1573 cells (Dmax and DC50). The experiment is classed as cell-based. In short, it runs like this: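 BRM levels were read by LI-COR in-cell Western after two-channel (800/680 nm) immunostaining of fixed, Triton-permeabilised SW1573 cells.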

[1] abbreviates: BRM degradation, SW1573 cells, read-out: DC50.
Where [2] appears, read: BRM degradation, SW1573 cells, Table 2D, read-out: *DC50.
Setting [3] is: SW1573, % degraded, when tested at the top concentration of between 0.3 and 10 μM, read-out: BRM Dmax (%).
Where [4] appears, read: degradation of BRM, read-out: BRM DC50.
[5] abbreviates: BRM degradation, SW1573 cells, when tested at the top concentration of between 0.3 and 10 μM, read-out: Dmax (%) (% degraded).
[6] abbreviates: BRM degradation, SW1573 cells, tested at the top concentration of between 0.3 and 10 μM, read-out: Dmax (%) (% degraded).

SMILES strings stand for the structures. Where two headings read alike, the source gives them in different places.

T1 sequence (P51531 whole entry): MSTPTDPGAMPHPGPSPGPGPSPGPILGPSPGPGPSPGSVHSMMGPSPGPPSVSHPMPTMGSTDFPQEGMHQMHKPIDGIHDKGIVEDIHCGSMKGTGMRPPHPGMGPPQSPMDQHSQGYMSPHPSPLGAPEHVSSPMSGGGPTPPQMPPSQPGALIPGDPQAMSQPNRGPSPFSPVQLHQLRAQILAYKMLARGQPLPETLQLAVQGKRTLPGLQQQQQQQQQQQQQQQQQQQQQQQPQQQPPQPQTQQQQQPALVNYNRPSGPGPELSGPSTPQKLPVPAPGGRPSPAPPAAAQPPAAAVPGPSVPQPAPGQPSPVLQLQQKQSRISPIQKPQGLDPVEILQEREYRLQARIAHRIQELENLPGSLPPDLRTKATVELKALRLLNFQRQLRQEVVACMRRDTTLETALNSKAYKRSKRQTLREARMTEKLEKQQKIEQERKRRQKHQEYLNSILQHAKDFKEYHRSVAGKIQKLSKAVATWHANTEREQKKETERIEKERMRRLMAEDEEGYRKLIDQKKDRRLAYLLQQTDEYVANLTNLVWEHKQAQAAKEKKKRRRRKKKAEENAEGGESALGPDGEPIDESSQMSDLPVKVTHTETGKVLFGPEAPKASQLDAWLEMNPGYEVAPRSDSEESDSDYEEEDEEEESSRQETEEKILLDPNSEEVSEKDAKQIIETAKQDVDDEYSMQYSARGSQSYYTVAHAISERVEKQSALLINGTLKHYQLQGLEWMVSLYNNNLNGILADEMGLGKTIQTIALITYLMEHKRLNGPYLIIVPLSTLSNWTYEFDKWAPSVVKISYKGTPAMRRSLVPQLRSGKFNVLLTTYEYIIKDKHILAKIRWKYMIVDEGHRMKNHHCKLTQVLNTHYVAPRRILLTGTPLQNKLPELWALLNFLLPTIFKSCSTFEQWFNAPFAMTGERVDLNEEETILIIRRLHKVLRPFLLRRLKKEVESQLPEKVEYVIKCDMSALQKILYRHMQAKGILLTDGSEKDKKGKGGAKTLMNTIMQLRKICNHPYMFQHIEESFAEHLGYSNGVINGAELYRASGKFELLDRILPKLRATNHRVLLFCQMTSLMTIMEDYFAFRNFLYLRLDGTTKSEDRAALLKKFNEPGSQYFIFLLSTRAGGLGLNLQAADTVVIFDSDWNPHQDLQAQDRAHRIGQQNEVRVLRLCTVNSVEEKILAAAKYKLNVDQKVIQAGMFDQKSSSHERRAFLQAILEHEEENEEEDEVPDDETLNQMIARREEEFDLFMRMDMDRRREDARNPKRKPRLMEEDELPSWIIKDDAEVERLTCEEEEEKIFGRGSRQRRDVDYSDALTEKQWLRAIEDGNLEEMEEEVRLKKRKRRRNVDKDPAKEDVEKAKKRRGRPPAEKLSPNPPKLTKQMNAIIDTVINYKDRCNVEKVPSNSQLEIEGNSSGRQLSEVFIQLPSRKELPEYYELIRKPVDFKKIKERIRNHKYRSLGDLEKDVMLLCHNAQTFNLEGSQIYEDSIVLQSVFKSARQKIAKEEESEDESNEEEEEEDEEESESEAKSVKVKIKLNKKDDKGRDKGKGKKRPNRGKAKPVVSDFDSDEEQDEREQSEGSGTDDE

Turning to `Cc1ncsc1-c1ccc([C@H](C)NC(=O)[C@@H]2C[C@@H](O)CN2C(=O)[C@H](c2cc(N3CCN(C(C)[C@H]4C[C@H](Oc5cc(N6C7CCC6CN(c6cc(-c8ccccc8O)nnc6N)C7)ccn5)C4)CC3)no2)C(C)C)cc1` (stereo partly drawn) [compound 703, (2S,4R)-1-((2S)-2-(3-(4-((1S)-1-((1r,3S)-3-((4-(3-(3-amino-6-(2-hydroxyphenyl)pyridazin-4-yl)-3,8-diazabicyclo[3.2.1]octan-8-yl)pyridin-2-yl)oxy)cyclobutyl)ethyl)piperazin-1-yl)isoxazol-5-yl)-3-methylbutanoyl)-4-hydroxy-N-((S)-1-(4-(4-methylthiazol-5-yl)phenyl)ethyl)pyrrolidine-2-carboxamide], the DC50 under setting [1] lay in the range of 2.5 to 10 nM. The Dmax (BRM degradation, SW1573 cells, read-out: Dmax (% degraded)) was over 75%.

Regarding `Cc1cc([C@H](C(=O)N2C[C@H](O)C[C@H]2C(=O)N[C@@H](C)c2ccc(-c3scnc3C)cc2)[C@H](C)COCCCCn2cc(-c3cc(-c4ccccc4O)nnc3N)cn2)on1` [compound 558, (2S,4R)-1-((2R,3S)-4-(4-(4-(3-amino-6-(2-hydroxyphenyl)pyridazin-4-yl)-1H-pyrazol-1-yl)butoxy)-3-methyl-2-(3-methylisoxazol-5-yl)butanoyl)-4-hydroxy-N-((S)-1-(4-(4-methylthiazol-5-yl)phenyl)ethyl) pyrrolidine-2-carboxamide], the DC50 under setting [2] was over 30 nM.

In the case of `Cc1ncsc1-c1ccc([C@H](C)NC(=O)C2C[C@@H](O)CN2C(=O)[C@H](c2onc(OCCN3CCC(O[C@H]4C[C@H](Oc5cc(N6C7CCC6CN(c6cc(-c8ccccc8O)nnc6N)C7)ccn5)C4)CC3)c2Cl)C(C)C)cc1` (stereo partly drawn) [compound 361, (2S,4R)-1-((2S)-2-(3-(2-(4-((1r,3S)-3-((4-(3-(3-amino-6-(2-hydroxyphenyl)pyridazin-4-yl)-3,8-diazabicyclo[3.2.1]octan-8-yl)pyridin-2-yl)oxy)cyclobutoxy)piperidin-1-yl)ethoxy)-4-chloroisoxazol-5-yl)-3-methylbutanoyl)-4-hydroxy-N-((S)-1-(4-(4-methylthiazol-5-yl)phenyl)ethyl)pyrrolidine-2-carboxamide], where the note is “target protein degradation, read-out: BRM DC50”, the DC50 was over 30 nM.

For `Cc1ncsc1-c1ccc([C@H](C)NC(=O)[C@@H]2C[C@@H](O)CN2C(=O)[C@H](c2cc(N3CCC(CN4CCC(O[C@H]5C[C@H](CN6CCOC7(CCN(c8cc(-c9ccccc9O)nnc8N)CC7)C6)C5)CC4)CC3)no2)C(C)C)cc1` [compound 609, (2S,4R)-1-((S)-2-(3-(4-((4-((1r,3r)-3-((9-(3-amino-6-(2-hydroxyphenyl)pyridazin-4-yl)-1-oxa-4,9-diazaspiro[5.5]undecan-4-yl)methyl)cyclobutoxy)piperidin-1-yl)methyl)piperidin-1-yl)isoxazol-5-yl)-3-methylbutanoyl)-4-hydroxy-N-((S)-1-(4-(4-methylthiazol-5-yl)phenyl)ethyl)pyrrolidine-2-carboxamide], under setting [2], the DC50 was over 30 nM.

In the case of `Cc1ncsc1-c1ccc([C@H](C)NC(=O)[C@@H]2C[C@@H](O)CN2C(=O)[C@@H](c2cc(N3CCC(CO[C@H]4C[C@H](Oc5cc(N6C7CCC6CN(c6cc(-c8ccccc8O)nnc6N)C7)ccn5)C4)CC3)no2)C(C)C)cc1` [compound 434, (2S,4R)-1-((2R)-2-(3-(4-(((1r,3R)-3-((4-(3-(3-amino-6-(2-hydroxyphenyl)pyridazin-4-yl)-3,8-diazabicyclo[3.2.1]octan-8-yl)pyridin-2-yl)oxy)cyclobutoxy)methyl)piperidin-1-yl)isoxazol-5-yl)-3-methylbutanoyl)-4-hydroxy-N-((S)-1-(4-(4-methylthiazol-5-yl)phenyl)ethyl)pyrrolidine-2-carboxamide], the Dmax under setting [3] was over 75%. Under setting [4], the half-maximal degradation concentration (DC50) was under 2.5 nM.

Take `COc1nc(-c2scnc2C)c(F)cc1[C@@H](C)NC(=O)[C@@H]1C[C@@H](O)CN1C(=O)[C@@H](c1cc(OCCN2CCC(O[C@H]3C[C@H](Oc4cc(N5C6CCC5CN(c5cc(-c7ccccc7O)nnc5N)C6)ccn4)C3)CC2)no1)C(C)C` [compound 564, (2S,4R)-1-((2R)-2-(3-(2-(4-((1r,3R)-3-((4-(3-(3-amino-6-(2-hydroxyphenyl)pyridazin-4-yl)-3,8-diazabicyclo[3.2.1]octan-8-yl)pyridin-2-yl)oxy)cyclobutoxy)piperidin-1-yl)ethoxy)isoxazol-5-yl)-3-methylbutanoyl)-N-((R)-1-(5-fluoro-2-methoxy-6-(4-methylthiazol-5-yl)pyridin-3-yl)ethyl)-4-hydroxypyrrolidine-2-carboxamide]: the half-maximal degradation concentration (DC50) under setting [2] is over 30 nM.

Regarding `Cc1ncsc1-c1ccc([C@H](C)NC(=O)[C@@H]2C[C@@H](O)CN2C(=O)[C@@H](c2cc(OCCN3CCN(CCCCN4CCOC5(CCN(c6cc(-c7ccccc7O)nnc6N)CC5)C4)CC3)no2)C(C)C)cc1` [compound 91, (2S,4R)-1-((R)-2-(3-(2-(4-(4-(9-(3-amino-6-(2-hydroxyphenyl)pyridazin-4-yl)-1-oxa-4,9-diazaspiro[5.5]undecan-4-yl)butyl)piperazin-1-yl)ethoxy)isoxazol-5-yl)-3-methylbutanoyl)-4-hydroxy-N-((S)-1-(4-(4-methylthiazol-5-yl)phenyl)ethyl)pyrrolidine-2-carboxamide], the DC50 under setting [1] is under 2.5 nM. The Dmax under setting [5] is over 75%.

Consider `Cc1ncsc1-c1ccc([C@H](C)NC(=O)[C@@H]2C[C@@H](O)CN2C(=O)[C@H](c2cc(OCCN3CCC(O[C@H]4C[C@H](Oc5cc(N6C7CCC6CN(c6cc(-c8ccccc8O)nnc6N)C7)ccn5)C4)CC3)no2)C(C)C)c(F)c1` [compound 239, (2S,4R)-1-((2S)-2-(3-(2-(4-((1r,3S)-3-((4-(3-(3-amino-6-(2-hydroxyphenyl)pyridazin-4-yl)-3,8-diazabicyclo[3.2.1]octan-8-yl)pyridin-2-yl)oxy)cyclobutoxy)piperidin-1-yl)ethoxy)isoxazol-5-yl)-3-methylbutanoyl)-N-((S)-1-(2-fluoro-4-(4-methylthiazol-5-yl)phenyl)ethyl)-4-hydroxypyrrolidine-2-carboxamide], for which the 50% degradation concentration (DC50) under setting [1] is over 30 nM. Further, the Dmax under setting [6] is over 75%.

Turning to `Cc1ncsc1-c1ccc([C@@H](C)NC(=O)[C@@H]2C[C@@H](O)CN2C(=O)[C@H](c2cc(OCCN3CCC(O[C@H]4C[C@H](Oc5cc(N6C7CCC6CN(c6cc(-c8ccccc8O)nnc6N)C7)ccn5)C4)CC3)no2)C(C)C)nn1` [compound 442, (2S,4R)-1-((2S)-2-(3-(2-(4-((1r,3S)-3-((4-(3-(3-amino-6-(2-hydroxyphenyl)pyridazin-4-yl)-3,8-diazabicyclo[3.2.1]octan-8-yl)pyridin-2-yl)oxy)cyclobutoxy)piperidin-1-yl)ethoxy)isoxazol-5-yl)-3-methylbutanoyl)-4-hydroxy-N-((R)-1-(6-(4-methylthiazol-5-yl)pyridazin-3-yl)ethyl)pyrrolidine-2-carboxamide], the DC50 under setting [4] was over 30 nM.

Regarding `Cc1ncsc1-c1ccc([C@H](CO)NC(=O)[C@@H]2C[C@@H](O)CN2C(=O)[C@@H](c2cc(OCCN3CCN(CCOc4cc(N5C6CCC5CN(c5cc(-c7ccccc7O)nnc5N)C6)ccn4)CC3)no2)C(C)C)cc1` [compound 100, (2S,4R)-1-((2R)-2-(3-(2-(4-(2-((4-(3-(3-amino-6-(2-hydroxyphenyl)pyridazin-4-yl)-3,8-diazabicyclo[3.2.1]octan-8-yl)pyridin-2-yl)oxy)ethyl)piperazin-1-yl)ethoxy)isoxazol-5-yl)-3-methylbutanoyl)-4-hydroxy-N-((R)-2-hydroxy-1-(4-(4-methylthiazol-5-yl)phenyl)ethyl)pyrrolidine-2-carboxamide], the half-maximal degradation concentration (DC50) under setting [1] is under 2.5 nM. Also, the Dmax under setting [5] was over 75%.

Turning to `Cc1ncoc1-c1ccc([C@H](C)NC(=O)[C@@H]2C[C@@H](O)CN2C(=O)[C@@H](c2cc(OCCN3CCC(O[C@H]4C[C@H](Oc5cc(N6C7CCC6CN(c6cc(-c8ccccc8O)nnc6N)C7)ccn5)C4)CC3)no2)C(C)C)cn1` [compound 230, (2S,4R)-1-((2R)-2-(3-(2-(4-((1r,3R)-3-((4-(3-(3-amino-6-(2-hydroxyphenyl)pyridazin-4-yl)-3,8-diazabicyclo[3.2.1]octan-8-yl)pyridin-2-yl)oxy)cyclobutoxy)piperidin-1-yl)ethoxy)isoxazol-5-yl)-3-methylbutanoyl)-4-hydroxy-N-((S)-1-(6-(4-methyloxazol-5-yl)pyridin-3-yl)ethyl)pyrrolidine-2-carboxamide], the DC50 under setting [1] was under 2.5 nM. Under setting [6], the Dmax is over 75%.

On to `Cc1ncsc1-c1ccc([C@H](C)NC(=O)[C@@H]2C[C@@H](O)CN2C(=O)[C@H](c2cc(OCCC3CCN(CCOc4cc(N5C6CCC5CN(c5cc(-c7ccccc7O)nnc5N)C6)ccn4)CC3)no2)C(C)C)cc1` [compound 510, (2S,4R)-1-((2S)-2-(3-(2-(1-(2-((4-(3-(3-amino-6-(2-hydroxyphenyl)pyridazin-4-yl)-3,8-diazabicyclo[3.2.1]octan-8-yl)pyridin-2-yl)oxy)ethyl)piperidin-4-yl)ethoxy)isoxazol-5-yl)-3-methylbutanoyl)-4-hydroxy-N-((S)-1-(4-(4-methylthiazol-5-yl)phenyl)ethyl)pyrrolidine-2-carboxamide], for which the DC50 (BRM degradation, read-out: BRM DC50) was under 2.5 nM. In addition, the Dmax under setting [3] is over 75%.
